In PMC7400437, “Synthesis and Evaluation of the Antibacterial Activities of 13-Substituted Berberine Derivatives” (Antibiotics, 2020):
Where two headings read alike, the source gives them in different places.

Key:
S. aureus = test: MIC, antimicrobial activity assay; format: cell-based, Staphylococcus aureus (ATCC 6538P); conditions: Staphylococcus aureus
B. subtilis [1] = test: MIC, antimicrobial activity assay; format: cell-based, Bacillus subtilis (ATCC 6633); conditions: Bacillus subtilis
E. coli = test: MIC, antimicrobial activity assay; format: cell-based, Escherichia coli (ATCC 8739); conditions: Escherichia coli
M. smegmatis = test: microbe, parasite or virus in culture; format: cell-based, Mycobacterium smegmatis (mc2155, ATCC 700084); conditions: Mycolicibacterium smegmatis, 72 h, read-out: Minimal Inhibitory Concentration (MIC) M. smegmatis
A. gandavensis = test: MIC, antimicrobial activity assay; format: cell-based, Arthrobacter gandavensis (DSM 2447); conditions: Arthrobacter gandavensis; Table 4, Gram-positive
[2] = system: B. subtilis (Nisin-resistant); test: MIC, antimicrobial activity assay; format: cell-based, nisin-resistant B. subtilis (DSMZ 347); conditions: Bacillus subtilis, read-out: MIC B. subtilis (Nisin-resistant)
[3] = system: S.aureus (Methicillin-resistant); test: MIC, antimicrobial activity assay; format: cell-based; conditions: Staphylococcus aureus, read-out: MIC S.aureus (Methicillin-resistant)
C. farmer = test: MIC, antimicrobial activity assay; format: cell-based, Citrobacter farmeri (ATCC 51633); conditions: Citrobacter farmeri; Table 4, Gram-negative
[4] = system: P. aeruginosa (Quinolone-resistant); test: MIC, antimicrobial activity assay; format: cell-based; conditions: Pseudomonas aeruginosa, read-out: MIC P. aeruginosa (Quinolone-resistant)
S. flexneri = test: MIC, antimicrobial activity assay; format: cell-based, Shigella flexneri (ATCC 12022); conditions: Shigella flexneri; Table 4, Gram-negative
[5] = system: BEAS (human airway epithelial cells); test: Cytotoxic assay on human cells (resazurin); format: cell-based; conditions: Epithelial cell, 48 h, means +/−SD, read-out: Inhibitory Concentration 50 (IC50) on cell viability, BEAS
Method in brief: (§1)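 Cells grown to confluence (48–72 h) were exposed for 48 h at 37 °C to 1:2 serial dilutions from 0 to 50 µM, with 0.5% DMSO as negative control. Resazurin 1:10 in PBS++ was added for 4 h, and fluorescence was read at 530/590 nm and normalized to DMSO wells. IC50 is the concentration giving 50% viability reduction.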

[6] = system: Caco2 (human intestinal epithelial cells); test: Cytotoxic assay on human cells (resazurin); format: cell-based; conditions: for IC50: Homo sapiens, Caco-2, 48 h, read-out: Inhibitory Concentration 50 (IC50) on cell viability, Caco2; for therapeutic index Caco2: IC50 on Caco2 divided by MIC on S. aureus
[7] = system: HepG2 (human liver cells); test: Cytotoxic assay on human cells (resazurin); format: cell-based; conditions: HepG2, 48 h, read-out: Inhibitory Concentration 50 (IC50) on cell viability, HEPG2
Method in brief: as §1

V. alginolyticus = test: Bacterial membrane permeabilization assay (propidium iodide); format: cell-based, Vibrio alginolyticus; conditions: for membrane permeabilization at 4-times MIC, V. alginolyticus: 4-times their MIC; for maximal membrane permeabilization, V. alginolyticus: 120 min exposure to 100 µM, CTAB 300 µM = 100%
Procedure: Membrane permeabilization by berberine derivatives was evaluated using the cell-impermeable DNA/RNA probe propidium iodide as previously explained. Logarithmic growing bacterial suspensions were prepared from overnight bacterial suspension by 1 in 10 dilution. After 3 h incubation at 37 °C, 200 rpm, bacterial suspensions were centrifuged for 5 min at 3000 rpm. Cell pellets were then resuspended in sterile PBS at about 10^9 cells/mL. Propidium iodide (Sigma Aldrich) was then added to the suspension at a final concentration of 60 µM. 100 µL of this suspension were then transferred into 96-well black plates (Dominique Dutscher) and exposed to increasing concentrations of berberine’s derivative (from 0 to 100 µM, 1:2 dilution). […] All steps of the assay were performed in aerobic condition except for H. pylori which was done in microaerobic condition generated with GasPak unit (Sigma Aldrich). Bacteria were incubated at 37 °C and the kinetics of fluorescence variations (excitation at 530 nm and emission at 590 nm) were then recorded over time using a Synergy Mx microplate reader (Biotek). Cetyl trimethylammonium bromide (CTAB) at 300 µM was used as positive control giving 100% permeabilization. Results were expressed in % of permeabilization. All experiments were done in triplicate.

[8] = system: DNA extracted from S. aureus; test: DNA fragmentation assay; conditions: data not shown
B. subtilis [9] = test: Macromolecule synthesis inhibition assay by fluorescent microscopy (morphological changes); conditions: 4 × MIC, 2 h, 37 °C; for Observed Morphology: DNA, B. subtilis: DAPI; for Known/Possible Target, B. subtilis: inferred from morphology
[10] = Table 1 first screening, read-out: Minimal Inhibitory Concentration (MIC) S. aureus
[11] = Table 4, Gram-positive, read-out: MIC S. aureus
[12] = Table 1 first screening, read-out: Minimal Inhibitory Concentration (MIC) B. subtilis
[13] = Table 4, Gram-positive, read-out: MIC B. subtilis
[14] = Table 1 first screening, read-out: Minimal Inhibitory Concentration (MIC) E. coli
[15] = Table 4, Gram-negative, read-out: MIC E. coli

SMILES | MIC (S. aureus; [10]) [µM] | MIC (S. aureus; [11]) [µM] | MIC (B. subtilis [1]; [12]) [µM] | MIC (B. subtilis [1]; [13]) [µM] | MIC (E. coli; [14]) [µM] | MIC (E. coli; [15]) [µM] | MIC (M. smegmatis) [µM] | MIC (A. gandavensis) [µM] | MIC [2] [µM] | MIC [3] [µM] | MIC (C. farmer) [µM] | MIC [4] [µM] | MIC (S. flexneri) [µM] | IC50 [5] [µM] | IC50 [6] [µM] | therapeutic index Caco2 [6] | IC50 [7] [µM] | membrane permeabilization at 4-times MIC, V. alginolyticus (V. alginolyticus) | maximal membrane permeabilization, V. alginolyticus (V. alginolyticus) | DNA fragmentation, S. aureus DNA [8] | also measured
COc1cc(C(=O)Cc2c3[n+](cc4c(OC)c(OC)ccc24)CCc2cc4c(cc2-3)OCO4)cc(OC)c1OC(=O)c1ccccc1 [Compound 16, 4-[2-(Berberin-13-yl)acetyl]-2,6-dimethoxyphenyl Benzoate] | 6.25 to 12.5 | 6.25 | 25 | 25 | > 100 | > 100 | 50 | 100 | 12.5 | 12.5 | > 100 | > 100 | > 100 | > 50 | > 50 | 10.36 | > 50 | 20–40% | 80–100% | failed at causing the fragmentation of DNA | Observed Morphology: cell elongation/enlargement, B. subtilis (B. subtilis [9]): 1.5–6 times compared to control; Observed Morphology: cells connected, B. subtilis (B. subtilis [9]): 2–4 cells connected; Observed Morphology: DNA, B. subtilis (B. subtilis [9]): 2 morphologies of DNA: • - 2 condensed DNA in each cell • - Decondensed DNA spanning the cell; Known/Possible Target, B. subtilis (B. subtilis [9]): Cell wall biosynthesis
COc1ccc(C(=O)/C=C/c2ccc(Cc3c4[n+](cc5c(OC)c(OC)ccc35)CCc3cc5c(cc3-4)OCO5)cc2)c(O)c1 [Compound 25, (2E)-3-{4-[(Berberin-13-yl)methyl]phenyl}-1-(2-hydroxy-4-methoxyphenyl)prop-2-en-1-one] | 3.12 | 3.12 | 6.25 | 6.25 | > 100 | > 100 | 25 | 1.5 | 6.25 | 6.25 | > 100 | > 100 | > 100 | 8.87 ± 1.5 | 10.5 ± 0.7 | 3.37 | > 50 | 20–40% | 80–100% | failed at causing the fragmentation of DNA | Observed Morphology: cell elongation/enlargement, B. subtilis (B. subtilis [9]): 1–2.5 times compared to control; Observed Morphology: cells connected, B. subtilis (B. subtilis [9]): 2–8 cells connected; Observed Morphology: DNA, B. subtilis (B. subtilis [9]): DNA condensed and cross the cells with dot like shape; Observed Morphology: cell membrane, B. subtilis (B. subtilis [9]; FM4-64FX): Cell membrane thickening; Known/Possible Target, B. subtilis (B. subtilis [9]): RNA biosynthesis
